Laboratory results published in article PMC6476928 (Frontiers in Pharmacology, 2019).

What was measured:
[1] = tested on: Ito1 current of NRVMs; assay: Whole-cell patch clamp of Ito1 current in neonatal rat ventricular myocytes; type: cell-based; details: 100 nM JZTX-V, at 30 mV, holding potential −40 mV, N = 4, mean ± SEM
Source text: (§1) Neonatal rat ventricular myocytes cells were obtained from ventricles of neonatal Sprague–Dawley rats as previously reported ([Sung et al., 2012]; [Yan et al., 2018]). SD rats (Hunan SJA Laboratory Animal Co., Ltd., Changsha, China) were used according to the guidelines of the National Institutes of Health for Care and Use of Laboratory Animals. The experiments were approved by the Animal Care and Use Committee of Hunan Normal University.
Ito currents, The Ca^2+-currents blocker CdCl2 (200-μmol/L) were used in external solutions. To generate Ito1 current, cells were held at −40 mV to inactivate the fast Na^+ current and then stepped to potentials of −40 mV to +60 mV in 10-mV increments.
(§2) All data points are shown as mean SEM.

[2] = tested on: action potential of NRVMs; assay: Action potential recording in neonatal rat ventricular myocytes; type: cell-based; details: 100 nM JZTX-V
Source text: as §1
The APs, Pipette solution contained (mM) 120 KCl, 1 MgCl2, 10 EGTA, 10 Hepes, and 3 MgATP (pH = 7.4). The extracellular buffer contained (mM) 140 NaCl, 5.4 KCl, 1.3 CaCl2, 0.5 MgCl2, 5 Hepes, and 5.5 glucose (pH = 7.4).
as §2

[3] = target: T1, Kv4.2 V290A (Homo sapiens, UniProt Q9NZV8, V290A); assay: Patch clamp of Kv4.2 mutant V290A in HEK293T cells; type: cell-based
T1 construct: expressed in transfected cells; host or cells: HEK293T
T1 sequence (Q9NZV8 1-630 V290A): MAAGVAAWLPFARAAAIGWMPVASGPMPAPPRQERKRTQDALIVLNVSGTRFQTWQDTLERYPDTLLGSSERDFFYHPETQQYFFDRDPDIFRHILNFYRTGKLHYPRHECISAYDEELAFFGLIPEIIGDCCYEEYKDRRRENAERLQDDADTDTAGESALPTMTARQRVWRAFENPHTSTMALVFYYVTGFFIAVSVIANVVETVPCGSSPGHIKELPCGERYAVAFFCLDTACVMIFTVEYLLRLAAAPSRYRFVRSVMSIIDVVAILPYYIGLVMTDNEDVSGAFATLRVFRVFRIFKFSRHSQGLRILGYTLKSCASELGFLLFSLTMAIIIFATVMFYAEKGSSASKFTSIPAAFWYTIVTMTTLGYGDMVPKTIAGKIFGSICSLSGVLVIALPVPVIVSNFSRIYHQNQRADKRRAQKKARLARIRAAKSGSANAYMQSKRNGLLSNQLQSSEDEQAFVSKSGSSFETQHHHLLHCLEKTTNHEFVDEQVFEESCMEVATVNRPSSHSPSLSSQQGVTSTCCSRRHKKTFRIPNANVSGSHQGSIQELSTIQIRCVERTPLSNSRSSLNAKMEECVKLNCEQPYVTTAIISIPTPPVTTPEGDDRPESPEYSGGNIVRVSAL
T1 sequence (Q9NS61 1-270 partner): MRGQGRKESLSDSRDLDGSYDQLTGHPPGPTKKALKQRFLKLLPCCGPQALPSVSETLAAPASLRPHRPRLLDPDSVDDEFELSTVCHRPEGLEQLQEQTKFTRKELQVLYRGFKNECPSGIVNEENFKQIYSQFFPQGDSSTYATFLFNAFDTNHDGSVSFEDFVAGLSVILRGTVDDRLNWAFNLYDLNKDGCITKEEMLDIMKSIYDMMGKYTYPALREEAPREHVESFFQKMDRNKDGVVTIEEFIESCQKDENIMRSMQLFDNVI
Method: Human embryonic kidney cell line (HEK293T) was obtained from Shanghai Institute of Cell Biology, Chinese Academy of Sciences (Shanghai, China) and maintained with 5% CO2 at 37°C in DMEM supplemented with 10% heat-inactivated fetal calf and serum (FBS), penicillin (100 U/ml), and streptomycin (100 μg/ml). The WT/mutant Kv4.2 plasmids were transiently transfected into HEK293T by Lipofectamine^TM 2000 Reagent (Invitrogen), and the KChIP2 subunits were co-transfected with Kv4.2.
The extracellular buffer and pipette solution for AP, Ito, and Kv4.2 were used as follows.
Kv4.2 current, The pipette solution contained (mM) 140 KF, 5 ATP-2Na, 1 EGTA, and 10 HEPEs (pH = 7.4). […] The steady-state activation of Kv4.2 was measured with the holding potential −80 mV and applied from −80 mV to 70 mV (10-mV increments). Steady-state inactivation of Kv4.2 channel measured with a series of a 300-ms depolarizing test potential of 10 mV followed a 1000-ms prepulse at potentials ranging from −120 to +70 mV with a 5-mV increment.
Data were analyzed using the clampfit (Axon) and Origin 9 software programs. […] The steady-state activation relationship was measured using Boltzmann function (f(V) = 1/{1 + exp[−(V−V1/2)/k]}^4). Steady-state inactivation was measured using the Boltzmann function f(V) = 1/{1 + exp[−(V − V1/2)/k]}.

[4] = tested on: Kv4.2 I275A; assay: Patch clamp of Kv4.2 mutant I275A in HEK293T cells; type: cell-based
Source text: as §2

[5] = tested on: Kv4.2 L277A; assay: Patch clamp of Kv4.2 mutant L277A in HEK293T cells; type: cell-based
Source text: as §2

[6] = tested on: Kv4.2 S1–S2 linker mutants; assay: Patch clamp of Kv4.2 S1–S2 linker alanine mutants in HEK293T cells; type: cell-based; details: all S1–S2 linker mutants, N = 5
Source text: as §2

[7] = tested on: A-type potassium channels in DRG cells; details: ref Zeng et al., 2008; read-out: IC50, block of A-type potassium channels in DRG cells; cited from earlier work
[8] = tested on: kv2.1; details: 5µM, X. laevis oocytes; cited from earlier work
Source text: Supplement Data_Sheet_1.docx, table 1: Supplementary Table 1.Activity of spider toxins on Kv2 and Kv4 channel subtypes Activities of spider toxins against different subtypes of Kv2 and Kv4 potassium channels are reported as IC50 (nanomolar) or as percentage of current inhibition at a single dose (nanomolar). Affinity (IC50) measurements | column: kv2.1 || Animal toxins target ion channels, and are thus valuable resources with potential therapeutic applications. The Kv4 subfamily from scorpion ([Maffie et al., 2013]; [Xie et al., 2014]) and spider venom ([Escoubas et al., 2002]; [Ebbinghaus et al., 2004]; [Yuan et al., 2007], [2012]; [DeSimone et al., 2009]) has a rich toxin pharmacology. HaTx, originally isolated from venom of the Chilean rose tarantula (Grammostola spatulata), inhibits Kv4.2 channels effectively, with similar affinity for Kv2.1 ([Swartz and MacKinnon, 1995]; [Swartz, 2007]). Other Kv4 channel inhibitors, Stromatoxin (ScTx1) fr ...

[9] = tested on: kv4.1; details: 5µM, X. laevis oocytes; cited from earlier work
Source text: Supplement Data_Sheet_1.docx, table 1: Supplementary Table 1.Activity of spider toxins on Kv2 and Kv4 channel subtypes Activities of spider toxins against different subtypes of Kv2 and Kv4 potassium channels are reported as IC50 (nanomolar) or as percentage of current inhibition at a single dose (nanomolar). Affinity (IC50) measurements | column: kv4.1

## CC[C@H](C)[C@H](NC(=O)[C@@H](NC(=O)[C@H](CCCCN)NC(=O)[C@H](CCCNC(=N)N)NC(=O)[C@@H]1CSSC[C@@H]2NC(=O)[C@H](C)NC(=O)[C@H](CCCNC(=N)N)NC(=O)[C@H](CCCCN)NC(=O)[C@H](CO)NC(=O)[C@H](CC(=O)O)NC(=O)[C@@H]3CSSC[C@H](NC(=O)[C@H](CCCNC(=N)N)NC(=O)[C@H](CC(C)C)NC(=O)CNC(=O)[C@H](CCC(=O)O)NC(=O)[C@H](CSSC[C@H](NC(=O)[C@@H](N)Cc4ccc(O)cc4)C(=O)N[C@@H](CCC(N)=O)C(=O)N[C@@H](CCCCN)C(=O)N[C@@H](Cc4c[nH]c5ccccc45)C(=O)N[C@@H](CCSC)C(=O)N[C@@H](Cc4c[nH]c5ccccc45)C(=O)N[C@@H]([C@@H](C)O)C(=O)N3)NC2=O)C(=O)N[C@@H](CCCCN)C(=O)N[C@@H](CC(C)C)C(=O)N[C@@H](Cc2c[nH]c3ccccc23)C(=O)N1)[C@@H](C)CC)C(=O)O [JZTX-V, Jingzhaotoxin-V]
[1]
  inhibition of Ito1 current of NRVMs: 78 ± 4.32%
[2]; 1 Hz, N = 5
  APD10 compared with vehicle-treated group: 123.53 ± 4.23%
  APD50 compared with vehicle-treated group: 124.34 ± 3.17%
  APD90 compared with vehicle-treated group: 126.26 ± 3.23%
[2]; N = 5
  effect on APD10–50: did not affect
  effect on APD50–90: did not affect
[2]; control 12 ± 1 ms
  APD10 after treatment: 15 ± 1.7 ms
[2]; control 88 ± 6 ms
  APD50 after treatment: 109 ± 8 ms
[2]; control 245 ± 7 ms
  APD90 after treatment: 309 ± 10 ms
[3]
  reduction of sensitivity to the toxin vs WT Kv4.2: ~12 fold
[4]
  increase of affinity for JZTX-V vs WT Kv4.2: ~10 fold
[5]
  increase of affinity for JZTX-V vs WT Kv4.2: ~20 fold
[6]
  JZTX-V binding affinity for Kv4.2 S1–S2 linker alanine mutants: only a slight decrease
[7]
  IC50: 0.0523 µM
[8]
  percentage of current inhibition kv2.1: 35% (5µM) O
[9]
  percentage of current inhibition kv4.1: 25% (5µM) O
